Measurements as given in US20070128217A1 (priority 2003, published 2007).

Assays:
[1] = tested on: antibodies in sera from SARS patients (sera 1a, 1b, 2, 6, 37, 62, London, SARS-yellow, SARS-green); type: binding, human; parameters: Binding of serum 6 to linear peptides of protein X1 of SARS-CoV Urbani / Binding of serum 37 to linear peptides of protein X1 of SARS-CoV Urbani / Binding of serum 6 to looped/cyclic peptide (PEPSCAN-ELISA) / Binding of serum 37 to looped/cyclic peptide (PEPSCAN-ELISA) / Binding of serum 37 to looped/cyclic peptides of protein X1 of SARS-CoV Urbani / Binding of serum 6 to linear peptides of protein X2 / Binding of serum 37 to linear peptides of protein X2 / Binding of serum 37 to looped/cyclic peptides of protein X2 of SARS-CoV Urbani / Binding of serum 6 to linear peptides of protein M of SARS-CoV Urbani / Binding of serum 37 to linear peptides of protein M of SARS-CoV Urbani / Binding of serum 6 to looped/cyclic peptides of protein M of SARS-CoV Urbani / Binding of serum 37 to looped/cyclic peptides of protein M of SARS-CoV Urbani / Binding of serum 6 to linear peptides of protein X3 of SARS-CoV Urbani / Binding of serum 37 to linear peptides of protein X3 of SARS-CoV Urbani / Binding of serum 37 to looped/cyclic peptides of protein X3 of SARS-CoV Urbani / Binding of serum 6 to linear peptides of protein X4 of SARS-CoV Urbani / Binding of serum 37 to linear peptides of protein X4 of SARS-CoV Urbani / Binding of serum 37 to looped/cyclic peptides of protein X4 of SARS-CoV Urbani / Binding of serum 6 to linear peptides of protein X5 of SARS-CoV Urbani / Binding of serum 37 to linear peptides of protein X5 of SARS-CoV Urbani / Binding of serum 37 to looped/cyclic peptides of protein X5 of SARS-CoV Urbani / Binding of serum 6 to linear peptides of protein N of SARS-CoV Urbani / Binding of serum 37 to linear peptides of protein N of SARS-CoV Urbani / Binding of serum 6 to linear peptide (PEPSCAN-ELISA) / Binding of serum 1a to looped/cyclic peptides of protein N of SARS-CoV Urbani / Binding of serum 1b to looped/cyclic peptides of protein N of SARS-CoV Urbani / Binding of serum 2 to looped/cyclic peptides of protein N of SARS-CoV Urbani / Binding of serum 6 to looped/cyclic peptides of protein N of SARS-CoV Urbani / Binding of serum 37 to looped/cyclic peptides of protein N of SARS-CoV Urbani / Binding of serum 62 to looped/cyclic peptides of protein N of SARS-CoV Urbani / Binding of serum London to looped/cyclic peptides of protein N of SARS-CoV Urbani / Binding of serum SARS-green to looped/cyclic peptides of protein N of SARS-CoV Urbani: unit not given here
[2] = tested on: control sera (pooled serum of ten healthy LUMC hospital workers; commercial negative donor pooled serum from the Dutch bloodbank); type: binding, human; parameters: Binding of Control serum LUMC to linear peptides / Binding of Control serum Blood-bank to linear peptides / Binding of Control serum LUMC to looped peptides / Binding of Control Serum Blood-Bank to Looped peptides / Binding of Control serum LUMC to linear peptides of the protein M of SARS-CoV Urbani / Binding of Control serum Blood-bank to linear peptides of the protein M of SARS-CoV Urbani / Binding of Control serum LUMC to looped peptides of the protein M of SARS-CoV Urbani / Binding of Control Serum Blood-Bank to Looped peptides of the protein M of SARS-CoV Urbani: unit not given here
[3] = tested on: rabbit serum obtained by immunizing a rabbit with the SARS-CoV strain Frankfurt 1; type: binding; parameters: Binding of a rabbit serum to linear peptides / Binding of a rabbit serum to looped peptides / Rabbit serum linear peptides / Rabbit serum looped peptides / Binding of a rabbit serum to linear peptides of protein N of SARS-CoV Urbani (Rabbit serum linear peptides) / Binding of a rabbit serum to looped/cyclic peptides of protein N of SARS-CoV Urbani (Rabbit serum looped peptides): unit not given here

PFGWLVIGVAFLAVF
Binding of serum 1a to linear peptides of protein X1 of SARS-CoV Urbani [1]: 0.7 | Binding of serum 1a to looped/cyclic peptide (PEPSCAN-ELISA) [1]: 0.5 | Binding of serum 1b to linear peptides of protein X1 of SARS-CoV Urbani [1]: 0.5 | Binding of serum 1b to looped/cyclic peptide (PEPSCAN-ELISA) [1]: 0.4 | Binding of serum 2 to linear peptides of protein X1 of SARS-CoV Urbani [1]: 0.5 | Binding of serum 2 to looped/cyclic peptide (PEPSCAN-ELISA) [1]: 0.5 | Binding of serum 6 to linear peptides of protein X1 of SARS-CoV Urbani [1]: 0.4 | Binding of serum 6 to looped/cyclic peptide (PEPSCAN-ELISA) [1]: 0.2 | Binding of serum 37 to linear peptides of protein X1 of SARS-CoV Urbani [1]: 0.7 | Binding of serum 37 to looped/cyclic peptide (PEPSCAN-ELISA) [1]: 0.5 | Binding of serum 62 to linear peptides of protein X1 of SARS-CoV Urbani [1]: 0.6 | Binding of serum 62 to looped/cyclic peptide (PEPSCAN-ELISA) [1]: 0.5 | Binding of serum London to linear peptides of protein X1 of SARS-CoV Urbani [1]: 0.3 | Binding of serum London to looped/cyclic peptide (PEPSCAN-ELISA) [1]: 0.2 | Binding of serum SARS-green to linear peptides of protein X1 of SARS-CoV Urbani [1]: 0.3 | Binding of serum SARS-green to looped/cyclic peptide (PEPSCAN-ELISA) [1]: 0.4 | Binding of serum SARS-yellow to linear peptides of protein X1 of SARS-CoV Urbani [1]: 0.7 | Binding of serum SARS-yellow to looped/cyclic peptide (PEPSCAN-ELISA) [1]: 0.5 | Binding of Control Serum Blood-Bank to Looped peptides [2]: 0.5 | Binding of Control serum Blood-bank to linear peptides [2]: 0.5 | Binding of Control serum LUMC to linear peptides [2]: 0.5 | Binding of Control serum LUMC to looped peptides [2]: 0.5 | Binding of a rabbit serum to linear peptides [3]: 1.1 | Binding of a rabbit serum to looped peptides [3]: 0.5

PKEITVATSRTLSYY
Binding of serum 1a to linear peptides of protein M of SARS-CoV Urbani [1]: 0.6 | Binding of serum 1a to looped/cyclic peptides of protein M of SARS-CoV Urbani [1]: 0.6 | Binding of serum 1b to linear peptides of protein M of SARS-CoV Urbani [1]: 0.4 | Binding of serum 1b to looped/cyclic peptides of protein M of SARS-CoV Urbani [1]: 0.6 | Binding of serum 2 to linear peptides of protein M of SARS-CoV Urbani [1]: 0.5 | Binding of serum 2 to looped/cyclic peptides of protein M of SARS-CoV Urbani [1]: 0.6 | Binding of serum 6 to linear peptides of protein M of SARS-CoV Urbani [1]: 0.2 | Binding of serum 6 to looped/cyclic peptides of protein M of SARS-CoV Urbani [1]: 0.7 | Binding of serum 37 to linear peptides of protein M of SARS-CoV Urbani [1]: 0.8 | Binding of serum 37 to looped/cyclic peptides of protein M of SARS-CoV Urbani [1]: 0.6 | Binding of serum 62 to linear peptides of protein M of SARS-CoV Urbani [1]: 0.7 | Binding of serum 62 to looped/cyclic peptides of protein M of SARS-CoV Urbani [1]: 0.6 | Binding of serum London to linear peptides of protein M of SARS-CoV Urbani [1]: 0.3 | Binding of serum London to looped/cyclic peptides of protein M of SARS-CoV Urbani [1]: 0.2 | Binding of serum SARS-green to linear peptides of protein M of SARS-CoV Urbani [1]: 0.1 | Binding of serum SARS-green to looped/cyclic peptides of protein M of SARS-CoV Urbani [1]: 0.4 | Binding of serum SARS-yellow to linear peptides of protein M of SARS-CoV Urbani [1]: 0.1 | Binding of serum SARS-yellow to looped/cyclic peptides of protein M of SARS-CoV Urbani [1]: 0.4 | Binding of Control Serum Blood-Bank to Looped peptides of the protein M of SARS-CoV Urbani [2]: 0.6 | Binding of Control serum Blood-bank to linear peptides of the protein M of SARS-CoV Urbani [2]: 0.5 | Binding of Control serum LUMC to linear peptides of the protein M of SARS-CoV Urbani [2]: 0.3 | Binding of Control serum LUMC to looped peptides of the protein M of SARS-CoV Urbani [2]: 0.6 | Rabbit serum linear peptides [3]: 0.5 | Rabbit serum looped peptides [3]: 0.2

PKFTTSLSLHKLLQT
Binding of serum 1a to linear peptides of protein X2 [1]: 0.6 | Binding of serum 1a to looped/cyclic peptides of protein X2 of SARS-CoV Urbani [1]: 0.5 | Binding of serum 1b to linear peptides of protein X2 [1]: 0.4 | Binding of serum 1b to looped/cyclic peptides of protein X2 of SARS-CoV Urbani [1]: 0.4 | Binding of serum 2 to linear peptides of protein X2 [1]: 0.5 | Binding of serum 2 to looped/cyclic peptides of protein X2 of SARS-CoV Urbani [1]: 0.3 | Binding of serum 6 to linear peptides of protein X2 [1]: 0.3 | Binding of serum 6 to looped/cyclic peptides of protein X2 of SARS-CoV Urbani [1]: 0.3 | Binding of serum 37 to linear peptides of protein X2 [1]: 0.5 | Binding of serum 37 to looped/cyclic peptides of protein X2 of SARS-CoV Urbani [1]: 0.4 | Binding of serum 62 to linear peptides of protein X2 [1]: 0.6 | Binding of serum 62 to looped/cyclic peptides of protein X2 of SARS-CoV Urbani [1]: 0.6 | Binding of serum London to linear peptides of protein X2 [1]: 0.4 | Binding of serum London to looped/cyclic peptides of protein X2 of SARS-CoV Urbani [1]: 0.3 | Binding of serum SARS-green to linear peptides of protein X2 [1]: 0.5 | Binding of serum SARS-green to looped/cyclic peptides of protein X2 of SARS-CoV Urbani [1]: 0.3 | Binding of serum SARS-yellow to linear peptides of protein X2 [1]: 0.3 | Binding of serum SARS-yellow to looped/cyclic peptides of protein X2 of SARS-CoV Urbani [1]: 0.3 | Binding of Control Serum Blood-Bank to Looped peptides [2]: 0.7 | Binding of Control serum Blood-bank to linear peptides [2]: 0.7 | Binding of Control serum LUMC to linear peptides [2]: 0.4 | Binding of Control serum LUMC to looped peptides [2]: 0.4 | Binding of a rabbit serum to linear peptides [3]: 0.2 | Binding of a rabbit serum to looped peptides [3]: 0.4
